Each structure is given as a SMILES string.

activated ERK2, sequence (P28482 whole entry): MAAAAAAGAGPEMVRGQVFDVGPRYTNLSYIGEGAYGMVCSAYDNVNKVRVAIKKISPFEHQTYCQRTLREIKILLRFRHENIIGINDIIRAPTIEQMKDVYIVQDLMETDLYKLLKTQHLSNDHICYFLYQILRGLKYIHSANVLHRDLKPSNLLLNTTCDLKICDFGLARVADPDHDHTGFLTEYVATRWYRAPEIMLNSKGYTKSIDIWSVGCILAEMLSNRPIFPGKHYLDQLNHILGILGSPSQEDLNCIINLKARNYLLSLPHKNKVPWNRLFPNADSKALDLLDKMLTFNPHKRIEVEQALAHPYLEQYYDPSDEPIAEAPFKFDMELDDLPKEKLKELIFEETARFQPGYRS

This test addresses activated ERK2 (Homo sapiens (Human), UniProt P28482). Briefly: Activated ERK2 (20 pM) Kinase Assay (AlphaScreen, ERKtide phosphorylation). As to conditions: 0.02 nM ERK2, 400 nM ERKtide peptide, 35 μM ATP, 30 min preincubation. Format: biochemical. A digest of the protocol: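 AlphaScreen read-out (anti-phospho-EGFR Thr669 antibody, protein A acceptor/streptavidin donor beads) of ERKtide (400 nM) phosphorylation by 20 pM activated ERK2 at 35 μM ATP.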
(In general: In Alpha technology, singlet oxygen from a donor bead excites a nearby acceptor bead.)
In the case of `CNC[C@@H](NC(=O)c1ccc(-c2nc([C@H]3CC[C@H](OC)CC3)cnc2N)cc1F)c1cc(F)cc(Br)c1` [Example 374, 4-(3-amino-6-((1r,4S)-4-methoxy-cyclohexyl)pyrazin-2-yl)-N-((S)-1-(3-bromo-5-fluorophenyl)-2-(methylamino)ethyl)-2-fluorobenzamide], the IC50 (commonly the concentration needed to halve the response being measured) came to 0.0205 nM. To `CNC[C@@H](NC(=O)c1ccc(-c2nc([C@H]3CC[C@H](OC)CC3)cnc2N)cc1F)c1cccc(Br)c1` [Example 375, 4-(3-amino-6-((1r,4S)-4-methoxy-cyclohexyl)pyrazin-2-yl)-N-((S)-1-(3-bromophenyl)-2-(methylamino)ethyl)-2-fluorobenzamide] belongs 0.0401 nM. As to `CNC[C@@H](NC(=O)c1ccc(-c2nc([C@H]3CC[C@H](O)CC3)cnc2N)cc1F)c1cc(F)cc(Br)c1` [Example 376, 4-(3-amino-6-((1r,4S)-4-hydroxy-cyclohexyl)pyrazin-2-yl)-N-((S)-1-(3-bromo-5-fluorophenyl)-2-(methylamino)ethyl)-2-fluorobenzamide], 0.0183 nM corresponded to half-maximal inhibition (IC50).

Turning to `CNC[C@@H](NC(=O)c1ccc(-c2nc([C@H]3CC[C@H](OC)CC3)cnc2N)cc1F)c1cccc(Cl)c1` [Example 377, 4-(3-amino-6-((1r,4S)-4-methoxy-cyclohexyl)pyrazin-2-yl)-N-((S)-1-(3-chlorophenyl)-2-(methylamino)ethyl)-2-fluorobenzamide], 0.07 nM corresponded to half-maximal inhibition (IC50). To `CCNC[C@@H](NC(=O)c1ccc(-c2nc(C3CCOCC3)cnc2N)cc1F)c1cccc(Br)c1` [Example 378, (S)-4-(3-amino-6-(tetrahydro-2H-pyran-4-yl)pyrazin-2-yl)-N-(1-(3-bromophenyl)-2-(ethylamino)ethyl)-2-fluorobenzamide] belongs 0.0248 nM; to `CCNC[C@@H](NC(=O)c1ccc(-c2nc([C@H]3CC[C@H](O)CC3)cnc2N)cc1F)c1cccc(Br)c1` [Example 379, 4-(3-amino-6-((1r,4S)-4-hydroxy-cyclohexyl)pyrazin-2-yl)-N-((S)-1-(3-bromophenyl)-2-(ethylamino)ethyl)-2-fluorobenzamide], 0.0617 nM; to `CNC[C@@H](NC(=O)c1ccc(-c2nc(C3CCOCC3)cnc2N)cc1F)c1cccc(Br)c1` [Example 380, (S)-4-(3-amino-6-(tetrahydro-2H-pyran-4-yl)pyrazin-2-yl)-N-(1-(3-bromophenyl)-2-(methylamino)ethyl)-2-fluorobenzamide], 0.0097 nM.

As to `CNC[C@@H](NC(=O)c1ccc(-c2nc([C@H]3CC[C@H](O)CC3)cnc2N)cc1F)c1cccc(Br)c1` [Example 381, 4-(3-amino-6-((1r,4S)-4-hydroxy-cyclohexyl)pyrazin-2-yl)-N-((S)-1-(3-bromophenyl)-2-(methylamino)ethyl)-2-fluorobenzamide], the IC50 was 0.0209 nM.

Consider `CO[C@H]1CC[C@H](c2cnc(N)c(-c3ccc(C(=O)N[C@H](CN)c4cc(F)cc(I)c4)c(F)c3)n2)CC1` [Example 382, N-((S)-2-amino-1-(3-fluoro-5-iodophenyl)ethyl)-4-(3-amino-6-((1r,4S)-4-methoxy-cyclohexyl)pyrazin-2-yl)-2-fluorobenzamide], for which the IC50 is 0.0107 nM. Compared with the last molecule, the IC50 is about 2-fold lower. To `CO[C@H]1CC[C@H](c2cnc(N)c(-c3ccc(C(=O)N[C@H](CN)c4cccc(Br)c4)c(F)c3)n2)CC1` [Example 383, N-((S)-2-amino-1-(3-bromophenyl)ethyl)-4-(3-amino-6-((1r,4S)-4-methoxy-cyclohexyl)pyrazin-2-yl)-2-fluorobenzamide] belongs 0.0689 nM. `CSc1cccc([C@@H](CO)NC(=O)c2ccc(-c3nc(C4CCOCC4)cnc3N)cc2F)c1` [Example 387, (S)-4-(3-amino-6-(tetrahydro-2H-pyran-4-yl)pyrazin-2-yl)-2-fluoro-N-(2-hydroxy-1-(3-(methylthio)phenyl)ethyl)benzamide] displayed an IC50 of 0.01 nM. Regarding `CSc1cccc([C@@H](CO)NC(=O)c2ccc(-c3nc([C@H]4CC[C@H](O)CC4)cnc3N)cc2F)c1` [Example 388, 4-(3-amino-6-((1r,4S)-4-hydroxy-cyclohexyl)pyrazin-2-yl)-2-fluoro-N-((S)-2-hydroxy-1-(3-(methylthio)phenyl)ethyl)benzamide], half-maximal inhibition (IC50) required 0.0269 nM. To `Nc1ncc(C2CCOCC2)nc1-c1ccc(C(=O)N[C@H](CO)c2cc(F)cc(CCl)c2)c(F)c1` [Example 390, (S)-4-(3-amino-6-(tetrahydro-2H-pyran-4-yl)pyrazin-2-yl)-N-(1-(3-(chloromethyl)-5-fluorophenyl)-2-hydroxyethyl)-2-fluorobenzamide] belongs 0.0242 nM; to `CSc1cc(F)cc([C@@H](CO)NC(=O)c2ccc(-c3cc(-c4cn(C)nc4C)cnc3N)cc2F)c1` [Example 394, (S)-4-(2-amino-5-(1,3-dimethyl-1H-pyrazol-4-yl)pyridin-3-yl)-2-fluoro-N-(1-(3-fluoro-5-(methylthio)phenyl)-2-hydroxyethyl) benzamide], 0.0153 nM; to `CSc1cc(F)cc([C@@H](CO)NC(=O)c2ccc(-c3nc(C4CCOCC4)cnc3N)cc2F)c1` [Example 395, (S)-4-(3-amino-6-(tetrahydro-2H-pyran-4-yl)pyrazin-2-yl)-2-fluoro-N-(1-(3-fluoro-5-(methylthio)phenyl)-2-hydroxyethyl) benzamide], 0.00827 nM. Consider `CSc1cc(F)cc([C@@H](CO)NC(=O)c2ccc(-c3nc([C@H]4CC[C@H](O)CC4)cnc3N)cc2F)c1` [Example 396, 4-(3-amino-6-((1r,4S)-4-hydroxy-cyclohexyl)pyrazin-2-yl)-2-fluoro-N-((S)-1-(3-fluoro-5-(methylthio)phenyl)-2-hydroxyethyl) benzamide], for which inhibition was half-maximal at 0.0198 nM (IC50). To `C[C@@H](O)[C@@H](NC(=O)c1ccc(-c2nc([C@H]3CC[C@H](O)CC3)cnc2N)cc1F)c1cccc(Cl)c1` [Example 398, 4-(3-amino-6-((1r,4S)-4-hydroxy-cyclohexyl)pyrazin-2-yl)-N-((1S,2R)-1-(3-chlorophenyl)-2-hydroxypropyl)-2-fluorobenzamide] belongs 0.281 nM; to `CNC[C@@H](NC(=O)c1ccc(-c2nc([C@H]3CC[C@H](O)CC3)cnc2N)cc1F)c1cccc(Cl)c1` [Example 401, 4-(3-amino-6-((1r,4S)-4-hydroxy-cyclohexyl)pyrazin-2-yl)-N-((S)-1-(3-chlorophenyl)-2-(methylamino)ethyl)-2-fluorobenzamide], 0.0463 nM. To `[N-]=[N+]=NC[C@@H](NC(=O)c1ccc(-c2nc(C3CCOCC3)cnc2N)cc1F)c1cccc(Cl)c1` [Example 404, (S)-4-(3-amino-6-(tetrahydro-2H-pyran-4-yl)pyrazin-2-yl)-N-(2-azido-1-(3-chlorophenyl)ethyl)-2-fluorobenzamide] belongs 0.115 nM. To `CC(=O)NC[C@@H](NC(=O)c1ccc(-c2nc([C@H]3CC[C@H](O)CC3)cnc2N)cc1F)c1cccc(Cl)c1` [Example 405, N-((S)-2-acetamido-1-(3-chlorophenyl)ethyl)-4-(3-amino-6-((1r,4S)-4-hydroxy-cyclohexyl)pyrazin-2-yl)-2-fluorobenzamide] belongs 0.238 nM. Regarding `CO[C@H]1CC[C@H](c2cnc(N)c(-c3ccc(C(=O)N[C@H](CNC(C)=O)c4cccc(Cl)c4)c(F)c3)n2)CC1` [Example 406, N-((S)-2-acetamido-1-(3-chlorophenyl)ethyl)-4-(3-amino-6-((1r,4S)-4-methoxy-cyclohexyl)pyrazin-2-yl)-2-fluorobenzamide], half-maximal inhibition (IC50) required 0.249 nM.

Values taken from patent US9242996B2 (Novartis AG, priority 2013, dated 2016).
